Laboratory results taken from ChEMBL document CHEMBL3885881, “DrugMatrix”.

Organism: Rattus norvegicus
Assay: DrugMatrix - Regimen: Daily Repeat
Type: toxicity, organism-based, Sprague-Dawley
Design: regimen Daily Repeat, gender Male, age 6-8 weeks
Conditions: in vivo, po, route oral GAVAGE, vehicle .5 % CMC; for ABSOLUTE BASOPHIL / ABSOLUTE EOSINOPHIL / ABSOLUTE LYMPHOCYTE / ABSOLUTE MONOCYTE / ABSOLUTE SEGMENTED NEUTROPHIL / BASOPHIL / EOSINOPHIL / ERYTHROCYTE COUNT / HEMATOCRIT / HEMOGLOBIN / LEUKOCYTE COUNT / LYMPHOCYTE / MEAN CORPUSCULAR HEMOGLOBIN / MEAN CORPUSCULAR HEMOGLOBIN CONCENTRATION / MEAN CORPUSCULAR VOLUME / MONOCYTE / NEUTROPHIL / NUCLEATED RED BLOOD CELLS / PLATELET COUNT: tissue Blood; for ALANINE AMINOTRANSFERASE / ALBUMIN / ALKALINE PHOSPHATASE / ASPARTATE AMINOTRANSFERASE / BLOOD UREA NITROGEN / CARBON DIOXIDE / CHLORIDE / CHOLESTEROL / CREATINE PHOSPHOKINASE / CREATININE / GLUCOSE / LACTATE DEHYDROGENASE / LIPASE / PHOSPHORUS / POTASSIUM / SODIUM / TOTAL BILIRUBIN / TOTAL PROTEIN / URIC ACID: tissue Plasma
[1] = 100 mg/kg, 72 h, dose level Low, time 3 day
[2] = 100 mg/kg, 120 h, dose level Low, time 5 day
[3] = 2000 mg/kg, 72 h, dose level High, time 3 day
[4] = 2000 mg/kg, 120 h, dose level High, time 5 day

## C#C[C@]1(O)CC[C@H]2[C@@H]3CCC4=Cc5oncc5C[C@]4(C)[C@H]3CC[C@@]21C [DANAZOL]
[1]
  ABSOLUTE BASOPHIL: 0 CELLS/uL
  ABSOLUTE EOSINOPHIL: 39 CELLS/uL
  ABSOLUTE LYMPHOCYTE: 10714 CELLS/uL
  ABSOLUTE MONOCYTE: 124 CELLS/uL
  ABSOLUTE SEGMENTED NEUTROPHIL: 1823 CELLS/uL
  BASOPHIL: 0%
  EOSINOPHIL: 0.33%
  ERYTHROCYTE COUNT: 5.54 x10E6/uL
  HEMATOCRIT: 34.17%
  HEMOGLOBIN: 13.43 G/DL
  LEUKOCYTE COUNT: 12.7 x10E3/uL
  LYMPHOCYTE: 84.33%
  MEAN CORPUSCULAR HEMOGLOBIN: 24.3 pg
  MEAN CORPUSCULAR HEMOGLOBIN CONCENTRATION: 39.3 G/DL
  MEAN CORPUSCULAR VOLUME: 61.77 fL
  MONOCYTE: 1%
  NEUTROPHIL: 14.33%
  NUCLEATED RED BLOOD CELLS: 0 /100WBC
  PLATELET COUNT: 1192.67 x10E3/uL
  ALANINE AMINOTRANSFERASE: 44.33 u/L
  ALBUMIN: 4.17 G/DL
  ALKALINE PHOSPHATASE: 377 u/L
  ASPARTATE AMINOTRANSFERASE: 76.33 u/L
  BLOOD UREA NITROGEN: 14.67 mg/dL
  CARBON DIOXIDE: 25.33 mmol/L
  CHLORIDE: 102 MEQ/L
  CHOLESTEROL: 55 mg/dL
  CREATINE PHOSPHOKINASE: 401.33 u/L
  CREATININE: 0.17 mg/dL
  GLUCOSE: 163.33 mg/dL
  LACTATE DEHYDROGENASE: 137 u/L
  LIPASE: 10 u/L
  PHOSPHORUS: 12.07 mg/dL
  POTASSIUM: 6.65 MEQ/L
  SODIUM: 143.7 MEQ/L
  TOTAL BILIRUBIN: 0.2 mg/dL
  TOTAL PROTEIN: 5.97 G/DL
  URIC ACID: 1.73 mg/dL
[2]
  ABSOLUTE BASOPHIL: 0 CELLS/uL
  ABSOLUTE EOSINOPHIL: 63 CELLS/uL
  ABSOLUTE LYMPHOCYTE: 13104.67 CELLS/uL
  ABSOLUTE MONOCYTE: 130.33 CELLS/uL
  ABSOLUTE SEGMENTED NEUTROPHIL: 1568.67 CELLS/uL
  BASOPHIL: 0%
  EOSINOPHIL: 0.33%
  ERYTHROCYTE COUNT: 5.51 x10E6/uL
  HEMATOCRIT: 33.67%
  HEMOGLOBIN: 13.33 G/DL
  LEUKOCYTE COUNT: 14.87 x10E3/uL
  LYMPHOCYTE: 88%
  MEAN CORPUSCULAR HEMOGLOBIN: 24.2 pg
  MEAN CORPUSCULAR HEMOGLOBIN CONCENTRATION: 39.57 G/DL
  MEAN CORPUSCULAR VOLUME: 61.07 fL
  MONOCYTE: 1%
  NEUTROPHIL: 10.67%
  NUCLEATED RED BLOOD CELLS: 0 /100WBC
  PLATELET COUNT: 1135.67 x10E3/uL
  ALANINE AMINOTRANSFERASE: 59.67 u/L
  ALBUMIN: 4.07 G/DL
  ALKALINE PHOSPHATASE: 404 u/L
  ASPARTATE AMINOTRANSFERASE: 88.67 u/L
  BLOOD UREA NITROGEN: 15.67 mg/dL
  CARBON DIOXIDE: 28 mmol/L
  CHLORIDE: 99.67 MEQ/L
  CHOLESTEROL: 47.67 mg/dL
  CREATINE PHOSPHOKINASE: 326.33 u/L
  CREATININE: 0.2 mg/dL
  GLUCOSE: 144 mg/dL
  LACTATE DEHYDROGENASE: 320.33 u/L
  LIPASE: 9 u/L
  PHOSPHORUS: 10.93 mg/dL
  POTASSIUM: 6.55 MEQ/L
  SODIUM: 142.4 MEQ/L
  TOTAL BILIRUBIN: 0.23 mg/dL
  TOTAL PROTEIN: 5.87 G/DL
  URIC ACID: 1.63 mg/dL
[3]
  ABSOLUTE BASOPHIL: 0 CELLS/uL
  ABSOLUTE EOSINOPHIL: 36.33 CELLS/uL
  ABSOLUTE LYMPHOCYTE: 8482.33 CELLS/uL
  ABSOLUTE MONOCYTE: 63 CELLS/uL
  ABSOLUTE SEGMENTED NEUTROPHIL: 1351.67 CELLS/uL
  BASOPHIL: 0%
  EOSINOPHIL: 0.33%
  ERYTHROCYTE COUNT: 6.02 x10E6/uL
  HEMATOCRIT: 35.6%
  HEMOGLOBIN: 13.97 G/DL
  LEUKOCYTE COUNT: 9.93 x10E3/uL
  LYMPHOCYTE: 85.33%
  MEAN CORPUSCULAR HEMOGLOBIN: 23.23 pg
  MEAN CORPUSCULAR HEMOGLOBIN CONCENTRATION: 39.23 G/DL
  MEAN CORPUSCULAR VOLUME: 59.17 fL
  MONOCYTE: 0.67%
  NEUTROPHIL: 13.67%
  NUCLEATED RED BLOOD CELLS: 0 /100WBC
  PLATELET COUNT: 1115.33 x10E3/uL
  ALANINE AMINOTRANSFERASE: 54.67 u/L
  ALBUMIN: 4.13 G/DL
  ALKALINE PHOSPHATASE: 331 u/L
  ASPARTATE AMINOTRANSFERASE: 125.67 u/L
  BLOOD UREA NITROGEN: 18 mg/dL
  CARBON DIOXIDE: 30 mmol/L
  CHLORIDE: 99.67 MEQ/L
  CHOLESTEROL: 51.67 mg/dL
  CREATINE PHOSPHOKINASE: 222.33 u/L
  CREATININE: 0.15 mg/dL
  GLUCOSE: 144.67 mg/dL
  LACTATE DEHYDROGENASE: 126.33 u/L
  LIPASE: 10 u/L
  PHOSPHORUS: 12 mg/dL
  POTASSIUM: 6.6 MEQ/L
  SODIUM: 143.8 MEQ/L
  TOTAL BILIRUBIN: 0.17 mg/dL
  TOTAL PROTEIN: 6.13 G/DL
  URIC ACID: 1.7 mg/dL
[4]
  ABSOLUTE BASOPHIL: 0 CELLS/uL
  ABSOLUTE EOSINOPHIL: 32.33 CELLS/uL
  ABSOLUTE LYMPHOCYTE: 11456 CELLS/uL
  ABSOLUTE MONOCYTE: 0 CELLS/uL
  ABSOLUTE SEGMENTED NEUTROPHIL: 1345 CELLS/uL
  BASOPHIL: 0%
  EOSINOPHIL: 0.33%
  ERYTHROCYTE COUNT: 5.94 x10E6/uL
  HEMATOCRIT: 35.4%
  HEMOGLOBIN: 14 G/DL
  LEUKOCYTE COUNT: 12.83 x10E3/uL
  LYMPHOCYTE: 88.67%
  MEAN CORPUSCULAR HEMOGLOBIN: 23.57 pg
  MEAN CORPUSCULAR HEMOGLOBIN CONCENTRATION: 39.57 G/DL
  MEAN CORPUSCULAR VOLUME: 59.5 fL
  MONOCYTE: 0%
  NEUTROPHIL: 11%
  NUCLEATED RED BLOOD CELLS: 0 /100WBC
  PLATELET COUNT: 1399.33 x10E3/uL
  ALANINE AMINOTRANSFERASE: 62.67 u/L
  ALBUMIN: 4.17 G/DL
  ALKALINE PHOSPHATASE: 326.67 u/L
  ASPARTATE AMINOTRANSFERASE: 68 u/L
  BLOOD UREA NITROGEN: 18.67 mg/dL
  CARBON DIOXIDE: 28.33 mmol/L
  CHLORIDE: 99.33 MEQ/L
  CHOLESTEROL: 45.33 mg/dL
  CREATINE PHOSPHOKINASE: 147.33 u/L
  CREATININE: 0.18 mg/dL
  GLUCOSE: 140.67 mg/dL
  LACTATE DEHYDROGENASE: 121 u/L
  LIPASE: 10 u/L
  PHOSPHORUS: 12.37 mg/dL
  POTASSIUM: 6.84 MEQ/L
  SODIUM: 145.03 MEQ/L
  TOTAL BILIRUBIN: 0.2 mg/dL
  TOTAL PROTEIN: 6.73 G/DL
  URIC ACID: 1.6 mg/dL
